From article PMC11643677, “In Silico Prediction of Alkaline Phosphatase Interaction with the Natural Inhibitory 5-Azaindoles Guitarrin C and D” (Molecules, 2024)
“Also recorded” adds a separate entry of the source.

How the values were obtained:
ALP = tested on: ALP; set-up: method as in PMID 25694083, PMID 37274413, PMID 36362051; conditions: standard inhibitory ligands of ALP ref 17-19; cited from earlier work
[1] = biological target: Vibrio splendidus alkaline phosphatase (VAP); set-up: method as in PMID 33102813; conditions: cited from earlier work
[2] = biological target: T1, alkaline phosphatase CmAP (Cobetia amphilecti, UniProt Q1W622); experiment: Inhibitory activity assay and kinetics on alkaline phosphatase CmAP (pNPP hydrolysis); type: biochemical, Cobetia amphilecti KMM 296; conditions: for IC50: 2 mM pNPP, 0.1 M Tris-HCl pH 10.0, 0.2 M KCl, 37 °C, 60 min preincubation, mean of three ± SD; for residual activity: at maximum inhibition; for Ki: by the Cheng–Prusoff formula Ki = IC50/(1 + [S]/Km); for type of inhibition: pNPP substrate; for Vmax in the presence of inhibitor: pNPP, guitarrin C 52.0 µM, guitarrin D 96.0 µM, 60 min preincubation at 23 °C, without inhibitor 5.98 ± 0.03
Experimental: (§1) The enzymatic activity was evaluated through the addition of 5 μL of the protein solution sample to a solution of 495 μL buffer, comprising 0.1 M Tris-HCl (pH 10.0), 0.2 M KCl, and 2 mM pNPP. The reaction mixture was incubated at 37 °C for a period of 30 min. To halt the reaction, 2 mL of chilled 0.5 M NaOH was introduced. The quantity of p-nitrophenol (pNP) produced was quantified spectrophotometrically at a wavelength of 400 nm, with the control sample, which lacked the enzyme, serving as a reference point. The specific activity was calculated using the following formula: (2.5 × OD400)/(18.6 × 0.005 × t × C), where OD400 is the optical density at a wavelength of 400 nm, 2.5 is the volume of the reaction mixture in mL, 18.6 is the extinction coefficient of pNP (M^−1/cm^−1), t is the incubation time at 37 °C in minutes, 0.005 is the sample volume in mL, and C is the protein concentration in the sample (mg/mL). The quantity of enzyme required for the generation of 1 µM pNP within a one-minute period was established as the unit of activity.
(§2) The effect of the natural inhibitors guitarrins C and D [33] on the activity of the alkaline phosphatases CmAP from C. amphilecti KMM 296 and calf intestinal alkaline phosphatase (CIAP, Invitrogen™ 18009019, Thermo Fisher Scientific, Waltham, MA, USA) was investigated in a buffer containing 0.1 M tris-HCl (pH 10.0) with 0.2 KCl. […] The activity of ALPs was determined using the standard method described above. CmAP (3.22 mg/mL, 2929 U/mg) and CIAP (0.99 mg/mL, 647 U/mg) were dissolved in 50 mM tris-HCl (pH 8.0) buffer with 2 mM MgCl2. Results were presented as the percentage of inhibition relative to control activity. The IC50 for each compound tested was defined as the concentration of compound that inhibited the enzyme activity by 50%. IC50 values are given as the mean of three experiments and standard deviation.
(§3) The kinetic parameters (Km and Vmax) were determined for alkaline phosphatases CmAP and CIAP. The mean Km values and standard deviations were presented. […] The inhibition constant, Ki, was determined using the Cheng–Prusoff formula [51]. The binding activity of the inhibitor to the reactive substrate (Ki) can be calculated using the following formula: Ki = IC50/(1 + [S]/Km), where IC50 is the functional activity of the inhibitor, [S] is the concentration of the reactive substrate, and KM is the Michaelis constant. The results were presented in the Origin 7.0 software.

[3] = biological target: T2, calf intestinal alkaline phosphatase (CIAP) (Bos taurus, UniProt P19111); experiment: Inhibitory activity assay on calf intestinal alkaline phosphatase (pNPP hydrolysis); type: biochemical; conditions: for IC50: 2 mM pNPP, 0.1 M Tris-HCl pH 10.0, 0.2 M KCl, 37 °C, 60 min preincubation, mean of three ± SD; for Ki: by the Cheng–Prusoff formula Ki = IC50/(1 + [S]/Km)
T2 construct: purchased Invitrogen, Thermo Fisher Scientific 18009019
Experimental: as §1, §2, §3

[4] = biological target: T1, alkaline phosphatase CmAP; set-up: method as in PMID 31181923; conditions: cited from earlier work; for affinity relative to the chelator EDTA: CmAP, higher affinity than EDTA ref 33; for inhibitory activity against CmAP: previous study ref 33

T1 sequence (Q1W622 entry or part of it): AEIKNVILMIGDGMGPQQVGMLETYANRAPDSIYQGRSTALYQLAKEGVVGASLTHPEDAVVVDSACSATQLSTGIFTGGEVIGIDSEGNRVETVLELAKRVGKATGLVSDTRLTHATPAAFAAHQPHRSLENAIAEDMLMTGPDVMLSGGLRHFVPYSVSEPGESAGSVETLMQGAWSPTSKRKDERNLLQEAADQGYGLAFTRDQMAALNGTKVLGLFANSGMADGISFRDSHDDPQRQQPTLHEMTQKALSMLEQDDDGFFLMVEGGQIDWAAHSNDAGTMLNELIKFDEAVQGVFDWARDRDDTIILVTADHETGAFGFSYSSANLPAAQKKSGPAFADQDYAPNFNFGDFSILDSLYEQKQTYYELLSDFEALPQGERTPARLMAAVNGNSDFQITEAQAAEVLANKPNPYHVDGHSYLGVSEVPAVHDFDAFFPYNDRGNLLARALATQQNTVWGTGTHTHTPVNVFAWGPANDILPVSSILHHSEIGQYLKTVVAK
T2 sequence (P19111 20-506 limits assumed): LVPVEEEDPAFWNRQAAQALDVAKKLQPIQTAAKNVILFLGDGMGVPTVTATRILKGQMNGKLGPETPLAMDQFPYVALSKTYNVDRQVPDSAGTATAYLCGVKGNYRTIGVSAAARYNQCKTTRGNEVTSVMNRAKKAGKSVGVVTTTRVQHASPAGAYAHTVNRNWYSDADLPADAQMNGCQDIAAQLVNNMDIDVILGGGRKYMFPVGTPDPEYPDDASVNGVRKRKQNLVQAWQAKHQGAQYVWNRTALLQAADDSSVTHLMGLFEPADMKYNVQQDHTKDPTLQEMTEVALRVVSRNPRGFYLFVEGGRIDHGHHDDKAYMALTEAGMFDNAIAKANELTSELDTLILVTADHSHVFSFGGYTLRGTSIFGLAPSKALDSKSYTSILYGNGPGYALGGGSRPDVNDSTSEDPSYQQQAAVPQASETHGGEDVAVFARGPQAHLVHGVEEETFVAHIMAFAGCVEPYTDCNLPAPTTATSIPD

N[C@@H](Cc1ccccc1)C(=O)O [L-phenylalanine]
IC50 (ALP): 80 µM

NC1CCCCC1 [cyclohexylamine]
IC50 ([1]; VAP ref 27): 35700 µM | Michaelis–Menten constant in the presence of inhibitor (unchanging) ([1]; VAP ref 27): 195 ± 4 µM | type of inhibition ([1]; VAP ref 27): non-competitive | Ki ([1]; VAP, Ki equal to IC50 ref 27): 35700 µM

O=C(O)c1cc2[nH]ccc2c(CO)n1 [guitarrin C]
maximum inhibition of activity [2]: 85% | IC50 [2]: 8.5 ± 0.08 µM | residual activity [2]: 15% | Ki [2]: 1.58 ± 0.04 µM | activity relative to guitarrin D ([2]; more active): 10 fold | type of inhibition [2]: non-competitive | Vmax in the presence of inhibitor [2]: 2.62 ± 0.02 U mL^−1 | maximum inhibition of activity [3]: 57% | IC50 [3]: 195 ± 2.2 µM | Ki [3]: 38 ± 0.1 µM | type of inhibition ([3]; pNPP substrate): non-competitive | affinity relative to the chelator EDTA [4]: 1000 fold | inhibitory activity against CmAP [4]: pronounced inhibitory activity

O=C(O)c1nc(CO)c2cc[nH]c2c1O [guitarrin D]
maximum inhibition of activity [2]: 85% | IC50 [2]: 110 ± 0.8 µM | residual activity [2]: 15% | Ki [2]: 20.56 ± 0.06 µM | type of inhibition [2]: mixed type of inhibition | Vmax in the presence of inhibitor [2]: 3.98 ± 0.02 U mL^−1 | decrease in Vmax ([2]; with versus without inhibitor): more than 2 fold | difference in inhibitory activity compared to guitarrin C [3]: 1.2 fold | maximum inhibition of activity [3]: 57% | IC50 [3]: 230 ± 1.6 µM | Ki [3]: 45 ± 0.2 µM | affinity relative to the chelator EDTA [4]: 100 fold | inhibitory activity against CmAP [4]: pronounced inhibitory activity

c1ccc([C@H]2CN3CCSC3=N2)cc1 [levamisole]
IC50 (ALP): 19 µM

Cn1c(=O)c2[nH]cnc2n(C)c1=O [theophylline]
IC50 (ALP): 47 µM | Ki (ALP): 91 µM

guitarrin A
inhibitory activity against CmAP [4]: no inhibitory activity; also recorded: non-inhibitory

guitarrin E
inhibitory activity against CmAP [4]: no inhibitory activity; also recorded: non-inhibitory
